Source: patent US12582617B2, “Methods for treating cancer” (RADIUS PHARMACEUTICALS, INC., priority 2015, dated 2026)
Where a name gives a salt, the structure may show the parent alone.

Test: Phase 1 dose escalation study: safety, treatment related AEs
Type: in vivo
Protocol: The subjects were 40-75 years old with BMI of 18.0-30 kg/m^2. Subjects having evidence of clinically relevant pathology, increased risk of stroke or of history venous thromboembolic events, or use of concomitant medication less than 14 days prior to admission to clinical research center (paracetamol allowed up to 3 days prior) were excluded.
The subjects were treated with placebo or at least one dose p.o., q.d. after a light breakfast for 7 days at dose levels of 200 mg, 500 mg, 750 mg and 1000 mg, respectively.

[1] = 200 to 1000 mg p.o., q.d., 7 days

CCNCCc1ccc(CN(CC)c2cc(OC)ccc2[C@@H]2CCc3cc(O)ccc3C2)cc1 [RAD1901, (6R)-6-(2-(N-(4-(2-(ethylamino)ethyl)benzyl)-N-ethylamino)-4-methoxyphenyl)-5,6,7,8-tetrahydronaphthalen-2-ol dihydrochloride]
Abdominal distension (treatment related AE) (750 mg, Gr3): 0 n(%)
Abdominal pain (treatment related AE) (750 mg, Gr3): 0 n(%)
Diarrhoea (treatment related AE) (750 mg, Gr3): 0 n(%)
Dizziness (treatment related AE) (750 mg, Gr3): 0 n(%)
Dyspepsia (treatment related AE) (750 mg, Gr3): 0 n(%)
Dysphagia (treatment related AE) (750 mg, Gr3): 0 n(%)
Flatulance (treatment related AE) (750 mg, Gr3): 0 n(%)
Headache (treatment related AE) (750 mg, Gr3): 0 n(%)
Hiccups (treatment related AE) (750 mg, Gr3): 0 n(%)
Hot flush (treatment related AE) (750 mg, Gr3): 0 n(%)
Myalgia (treatment related AE) (750 mg, Gr3): 0 n(%)
Nausea (treatment related AE) (750 mg, Gr3): 0 n(%)
Odynophagia (treatment related AE) (750 mg, Gr3): 0 n(%)
Oesophageal pain (treatment related AE) (750 mg, Gr3): 0 n(%)
Salivary hypersecretion (treatment related AE) (750 mg, Gr3): 0 n(%)
Sensation of a foreign body (treatment related AE) (750 mg, Gr3): 0 n(%)
Vomiting (treatment related AE) (750 mg, Gr3): 0 n(%)
Abdominal discomfort (treatment related AE) (1000 mg, Gr1): 0 n(%)
Abdominal distension (treatment related AE) (1000 mg, Gr1): 2 (29) n(%)
Abdominal pain (treatment related AE) (1000 mg, Gr1): 1 (14) n(%)
Diarrhoea (treatment related AE) (1000 mg, Gr1): 3 (43) n(%)
Dizziness (treatment related AE) (1000 mg, Gr1): 1 (14) n(%)
Dyspepsia (treatment related AE) (1000 mg, Gr1): 1 (14) n(%)
Dysphagia (treatment related AE) (1000 mg, Gr1): 0 n(%)
Flatulance (treatment related AE) (1000 mg, Gr1): 0 n(%)
Headache (treatment related AE) (1000 mg, Gr1): 2 (29) n(%)
Hiccups (treatment related AE) (1000 mg, Gr1): 2 (29) n(%)
Hot flush (treatment related AE) (1000 mg, Gr1): 1 (14) n(%)
Myalgia (treatment related AE) (1000 mg, Gr1): 0 n(%)
Nausea (treatment related AE) (1000 mg, Gr1): 4 (57) n(%)
Odynophagia (treatment related AE) (1000 mg, Gr1): 1 (14) n(%)
Oesophageal pain (treatment related AE) (1000 mg, Gr1): 1 (14) n(%)
Salivary hypersecretion (treatment related AE) (1000 mg, Gr1): 2 (29) n(%)
Sensation of a foreign body (treatment related AE) (1000 mg, Gr1): 4 (57) n(%)
Vomiting (treatment related AE) (1000 mg, Gr1): 0 n(%)
Abdominal discomfort (treatment related AE) (1000 mg, Gr2): 0 n(%)
Abdominal distension (treatment related AE) (1000 mg, Gr2): 0 n(%)
Abdominal pain (treatment related AE) (1000 mg, Gr2): 1 n(%)
Diarrhoea (treatment related AE) (1000 mg, Gr2): 1 n(%)
Dizziness (treatment related AE) (1000 mg, Gr2): 0 n(%)
Dyspepsia (treatment related AE) (1000 mg, Gr2): 1 n(%)
Dysphagia (treatment related AE) (1000 mg, Gr2): 0 n(%)
Flatulance (treatment related AE) (1000 mg, Gr2): 0 n(%)
Headache (treatment related AE) (1000 mg, Gr2): 0 n(%)
Hiccups (treatment related AE) (1000 mg, Gr2): 0 n(%)
Hot flush (treatment related AE) (1000 mg, Gr2): 0 n(%)
Myalgia (treatment related AE) (1000 mg, Gr2): 0 n(%)
Nausea (treatment related AE) (1000 mg, Gr2): 2 n(%)
Odynophagia (treatment related AE) (1000 mg, Gr2): 1 n(%)
Oesophageal pain (treatment related AE) (1000 mg, Gr2): 1 n(%)
Salivary hypersecretion (treatment related AE) (1000 mg, Gr2): 0 n(%)
Sensation of a foreign body (treatment related AE) (1000 mg, Gr2): 0 n(%)
Vomiting (treatment related AE) (1000 mg, Gr2): 3 n(%)
Abdominal discomfort (treatment related AE) (1000 mg, Gr3): 0 n(%)
Abdominal distension (treatment related AE) (1000 mg, Gr3): 0 n(%)
Abdominal pain (treatment related AE) (1000 mg, Gr3): 0 n(%)
Diarrhoea (treatment related AE) (1000 mg, Gr3): 0 n(%)
Dizziness (treatment related AE) (1000 mg, Gr3): 0 n(%)
Dyspepsia (treatment related AE) (1000 mg, Gr3): 0 n(%)
Dysphagia (treatment related AE) (1000 mg, Gr3): 0 n(%)
Flatulance (treatment related AE) (1000 mg, Gr3): 0 n(%)
Headache (treatment related AE) (1000 mg, Gr3): 0 n(%)
Hiccups (treatment related AE) (1000 mg, Gr3): 0 n(%)
Hot flush (treatment related AE) (1000 mg, Gr3): 0 n(%)
Myalgia (treatment related AE) (1000 mg, Gr3): 0 n(%)
Nausea (treatment related AE) (1000 mg, Gr3): 0 n(%)
Odynophagia (treatment related AE) (1000 mg, Gr3): 0 n(%)
Oesophageal pain (treatment related AE) (1000 mg, Gr3): 1 n(%)
Salivary hypersecretion (treatment related AE) (1000 mg, Gr3): 0 n(%)
Sensation of a foreign body (treatment related AE) (1000 mg, Gr3): 0 n(%)
Vomiting (treatment related AE) (1000 mg, Gr3): 0 n(%)
dose limiting toxicities (in words) [1]: No dose limiting toxicities (DLT) were observed
maximum tolerated dose (MTD) (in words) [1]: not established
Abdominal discomfort (treatment related AE) (Total Active, Gr1): 4 n(%)
Abdominal distension (treatment related AE) (Total Active, Gr1): 5 n(%)
Abdominal pain (treatment related AE) (Total Active, Gr1): 7 n(%)
Diarrhoea (treatment related AE) (Total Active, Gr1): 6 n(%)
Dizziness (treatment related AE) (Total Active, Gr1): 5 n(%)
Dyspepsia (treatment related AE) (Total Active, Gr1): 13 n(%)
Dysphagia (treatment related AE) (Total Active, Gr1): 4 n(%)
Flatulance (treatment related AE) (Total Active, Gr1): 5 n(%)
Headache (treatment related AE) (Total Active, Gr1): 9 n(%)
Hiccups (treatment related AE) (Total Active, Gr1): 9 n(%)
Hot flush (treatment related AE) (Total Active, Gr1): 11 n(%)
Myalgia (treatment related AE) (Total Active, Gr1): 3 n(%)
Nausea (treatment related AE) (Total Active, Gr1): 14 n(%)
Odynophagia (treatment related AE) (Total Active, Gr1): 4 n(%)
Oesophageal pain (treatment related AE) (Total Active, Gr1): 3 n(%)
Salivary hypersecretion (treatment related AE) (Total Active, Gr1): 8 n(%)
Sensation of a foreign body (treatment related AE) (Total Active, Gr1): 7 n(%)
Vomiting (treatment related AE) (Total Active, Gr1): 3 n(%)
Abdominal discomfort (treatment related AE) (Total Active, Gr2): 1 n(%)
Abdominal distension (treatment related AE) (Total Active, Gr2): 1 n(%)
Abdominal pain (treatment related AE) (Total Active, Gr2): 3 n(%)
Diarrhoea (treatment related AE) (Total Active, Gr2): 1 n(%)
Dizziness (treatment related AE) (Total Active, Gr2): 0 n(%)
Dyspepsia (treatment related AE) (Total Active, Gr2): 3 n(%)
Dysphagia (treatment related AE) (Total Active, Gr2): 3 n(%)
Flatulance (treatment related AE) (Total Active, Gr2): 0 n(%)
Headache (treatment related AE) (Total Active, Gr2): 1 n(%)
Hiccups (treatment related AE) (Total Active, Gr2): 0 n(%)
Hot flush (treatment related AE) (Total Active, Gr2): 0 n(%)
Myalgia (treatment related AE) (Total Active, Gr2): 2 n(%)
Nausea (treatment related AE) (Total Active, Gr2): 5 n(%)
Odynophagia (treatment related AE) (Total Active, Gr2): 2 n(%)
Oesophageal pain (treatment related AE) (Total Active, Gr2): 6 n(%)
Salivary hypersecretion (treatment related AE) (Total Active, Gr2): 0 n(%)
Sensation of a foreign body (treatment related AE) (Total Active, Gr2): 0 n(%)
Vomiting (treatment related AE) (Total Active, Gr2): 10 n(%)
Abdominal discomfort (treatment related AE) (Total Active, Gr3): 0 n(%)
Abdominal distension (treatment related AE) (Total Active, Gr3): 0 n(%)
Abdominal pain (treatment related AE) (Total Active, Gr3): 0 n(%)
Diarrhoea (treatment related AE) (Total Active, Gr3): 0 n(%)
Dizziness (treatment related AE) (Total Active, Gr3): 0 n(%)
Dyspepsia (treatment related AE) (Total Active, Gr3): 0 n(%)
Dysphagia (treatment related AE) (Total Active, Gr3): 0 n(%)
Flatulance (treatment related AE) (Total Active, Gr3): 0 n(%)
Headache (treatment related AE) (Total Active, Gr3): 0 n(%)
Hiccups (treatment related AE) (Total Active, Gr3): 0 n(%)
Hot flush (treatment related AE) (Total Active, Gr3): 0 n(%)
Myalgia (treatment related AE) (Total Active, Gr3): 0 n(%)
Nausea (treatment related AE) (Total Active, Gr3): 0 n(%)
Odynophagia (treatment related AE) (Total Active, Gr3): 0 n(%)
Oesophageal pain (treatment related AE) (Total Active, Gr3): 1 n(%)
Salivary hypersecretion (treatment related AE) (Total Active, Gr3): 0 n(%)
Sensation of a foreign body (treatment related AE) (Total Active, Gr3): 0 n(%)
Vomiting (treatment related AE) (Total Active, Gr3): 1 n(%)
Abdominal discomfort (treatment related AE) (Total TEAE, All): 5 (11)
Abdominal distension (treatment related AE) (Total TEAE, All): 6 (14)
Abdominal pain (treatment related AE) (Total TEAE, All): 10 (23)
Diarrhoea (treatment related AE) (Total TEAE, All): 7 (16)
Dizziness (treatment related AE) (Total TEAE, All): 5 (11)
Dyspepsia (treatment related AE) (Total TEAE, All): 16 (36)
Dysphagia (treatment related AE) (Total TEAE, All): 7 (16)
Flatulance (treatment related AE) (Total TEAE, All): 5 (11)
Headache (treatment related AE) (Total TEAE, All): 10 (23)
Hiccups (treatment related AE) (Total TEAE, All): 9 (20)
Hot flush (treatment related AE) (Total TEAE, All): 11 (25)
Myalgia (treatment related AE) (Total TEAE, All): 5 (11)
Nausea (treatment related AE) (Total TEAE, All): 19 (43)
Odynophagia (treatment related AE) (Total TEAE, All): 6 (14)
Oesophageal pain (treatment related AE) (Total TEAE, All): 10 (23)
Salivary hypersecretion (treatment related AE) (Total TEAE, All): 8 (18)
Sensation of a foreign body (treatment related AE) (Total TEAE, All): 7 (16)
Vomiting (treatment related AE) (Total TEAE, All): 14 (32)
